BindingDB's records for patent WO2025064535 (Deep Apple Therapeutics, 2025)
pIC50: −log10 of the molar value.

Tests used:
[1] = target: T1, Mas-related G-protein coupled receptor member X2 (Homo sapiens, UniProt Q96LB1); assay: MRGPRX2 Activity Assay
T1 sequence (Q96LB1 whole entry): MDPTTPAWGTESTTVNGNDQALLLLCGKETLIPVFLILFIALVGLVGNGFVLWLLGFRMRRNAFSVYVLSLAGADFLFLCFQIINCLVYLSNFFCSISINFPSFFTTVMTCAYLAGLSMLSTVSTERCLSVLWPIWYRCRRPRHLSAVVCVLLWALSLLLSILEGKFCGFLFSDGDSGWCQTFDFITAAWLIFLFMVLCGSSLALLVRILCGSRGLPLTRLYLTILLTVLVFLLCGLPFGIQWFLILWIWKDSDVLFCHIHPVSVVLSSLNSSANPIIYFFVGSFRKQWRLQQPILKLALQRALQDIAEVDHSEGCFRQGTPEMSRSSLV
Description: FlpIn TRex-MRGPRX2-HEK293 cells (herein TRex-MRPGRX2-HEK) stably transfected to express human MRGPRX2 were maintained at 37 °C with 5% CO2 and grown in DMEM supplemented with 10% FBS, 1% L-Glutamate, 1% penicillin/streptomycin, 100ug/mL Hygromycin B, and 15 µg/mL Blasticidin. GOI (MRGPRX2) expression was induced with 100ng/mL of Doxycycline 18-24 hours prior to experiment, in flask. On the day of experiment, cells were lifted with TripLE Express and seeded in 384-well white walled opaque bottomed, assay plates, at 8,000 cells per well in 5 µL freshly made assay buffer (HBSS, 20 mM HEPES, 0.1% BSA and 10 mM LiCl). Compounds solubilized in 100% DMSO at 30 mM were serially diluted (1:4) first in 100% DMSO, and an intermediate plate of assay buffer was used to establish a final top concentration of 30 µM (in assay plate). Final DMSO concentration was kept constant at 1% across assay plates. Cortistatin-14, at 30 mM stock concentration was solubilized in HBSS + 0.1% BSA, stored at -20°C in 5 µL aliquots and discarded after one freeze-thaw cycle. […] Antagonist equilibrium was established with 30 minutes preincubation, followed by no wash, direct addition, and stimulation of agonist for 1 hour at 37 °C / 5% CO2. IP-1 standards and HTRF detection reagents were added according to the IP-one Gq kit protocol purchased from CisBio (part number 62IPAPEJ). The plate was read on an EnVision XCite plate reader. The HTRF ratio was then calculated from raw data (channel1/channel2 ×10,000) and analyzed using either GraphPad Prism or a custom Python script to calculate IC50 using Log[Antagonist] vs. response (4 parameter) nonlinear regression.

[2] = target: T1, Mas-related G-protein coupled receptor member X2; assay: LAD2 Degranulation Assay (Protocol 2)
Description: LAD-2 cells were maintained at 37 °C with 5% CO2 and grown in complete StemPro-34 media supplemented with 1% L-Glutamate, 1% penicillin/streptomycin, and 250 ng/mL human SCF. 18-24 hours prior to experiment, LAD-2 cells were collected and transferred to growth media without SCF. […] For dose-response assays, compounds solubilized in 100% DMSO at 30 mM were serially diluted (1:3) first in 100% DMSO, and 2 intermediate dilutions with assay buffer were used to establish a final top concentration of 3 ^M (in assay plate). […] Final DMSO concentration was kept constant at 0.1% across plates for all assays. Cortistatin-14 at 30 mM stock concentration was solubilized in HBSS + 0.1% BSA, stored at -20°C in 5 ^L aliquots and discarded after one freeze-thaw cycle. Final concentration of agonist used in both dose-response and single point assays was 0.5 ^M, prepared in assay buffer. Antagonist equilibrium was established with 2 h preincubation, followed by no wash, direct addition, and stimulation of agonist for 30 minutes at 37 °C. For detection of ^-hexosaminidase activity, assay plates were centrifuged and 5 ^L of cell-free supernatant from each assay well was transferred to a black-walled black-bottomed 384-well plate. Substrate solution (1 mM 4-Methylumbelliferyl N-acetyl-β-D-glucosaminide in citrate buffer, pH=4.5, 15 ^l) was added to each well and plates were incubated for 1 hour at 37 °C. […] Background-subtracted data was analyzed using either GraphPad Prism or a custom Python script to calculate IC50 using either Log[Antagonist] vs. response (4 parameter) nonlinear regression (dose-response assays).

[3] = target: T1, Mas-related G-protein coupled receptor member X2; assay: LAD2 Degranulation Assay (Protocol 1)
Description: LAD-2 cells were maintained at 37 °C with 5% CO2 and grown in complete StemPro-34 media supplemented with 1% L-Glutamate, 1% penicillin/streptomycin, and 250 ng/mL human SCF. On the day of experiment, cells were collected by centrifugation and seeded in 384-well assay plates, at 4,000 cells per well in 10 ^l freshly made assay buffer (10 mM HEPES, 130 mM NaCl, 5 mM KCl, 1.8 mM CaCl2, 1.0 mM MgCl2, 5.6 mM glucose, 0.1% BSA, pH = 7.40). For dose-response assays, compounds solubilized in 100% DMSO at 30 mM were serially diluted (1:3) first in 100% DMSO, and 2 intermediate dilutions with assay buffer were used to establish a final top concentration of 3 ^M (in assay plate). Final DMSO concentration was kept constant at 0.1% across plates for all assays. Cortistatin-14 at 30 mM stock concentration was solubilized in HBSS + 0.1% BSA, stored at -20°C in 5 ^L aliquots and discarded after one freeze-thaw cycle. Final concentration of agonist used in both dose-response and single point assays was 1 ^M, prepared in assay buffer. Antagonist equilibrium was established with 30 minute preincubation, followed by no wash, direct addition, and stimulation of agonist for 30 minutes at 37 °C. For detection of ^-hexosaminidase activity, assay plates were centrifuged and 5 ^l of cell-free supernatant from each assay well was transferred to a black-walled black-bottomed 384-well plate. Substrate solution (1 mM 4-Methylumbelliferyl N-acetyl-β-D-glucosaminide in citrate buffer, pH=4.5, 15 ^l) was added to each well and plates were incubated for 1 hour at 37 °C. […] Background-subtracted data was analyzed using either GraphPad Prism or a custom Python script to calculate IC50 using either Log[Antagonist] vs. response (4 parameter) nonlinear regression (dose-response assays).

SMILES	pIC50 [1]	pIC50 [2]	pIC50 [3]
C[C@@H](C(=O)Nc1nc2cc3c(cc2s1)CCC3)N1CCC(F)(F)[C@H](c2ccc(=O)[nH]c2)C1 [WO2025064535, Compound 28]	7.74	6.84	–
C[C@@H](C(=O)Nc1nc2cc3c(cc2s1)OC(F)(F)O3)N1CC[C@H](F)[C@@H](c2cc[n+]([O-])cc2)C1 [WO2025064535, Compound 38]	7.49	7.14	–
C[C@@H](C(=O)Nc1nc2cc3c(cc2s1)OC(F)(F)O3)N1CCC[C@@H](c2cc[n+]([O-])cc2)C1 [WO2025064535, Compound 49]	< 4.52	< 5.52	–
C[C@@H](C(=O)Nc1nc2cc3c(cc2s1)OC(F)(F)O3)N1CCC(F)(F)[C@H](c2c[nH]c(=O)c(CN)c2)C1 [WO2025064535, Compound 85]	7.44	7.09	6.89
CNCc1cc([C@H]2CN([C@@H](C)C(=O)Nc3nc4cc5c(cc4s3)OC(F)(F)O5)CCC2(F)F)c[nH]c1=O [WO2025064535, Compound 86]	< 4.52	–	< 5.52
CNCc1cc([C@@H]2CN([C@@H](C)C(=O)Nc3nc4cc5c(cc4s3)OC(F)(F)O5)CCC2(F)F)c[nH]c1=O [WO2025064535, Compound 87]	7.39	–	6.65
C[C@@H](C(=O)Nc1nc2cc3c(cc2s1)OC(F)(F)O3)N1CCC(F)(F)[C@@H](c2c[nH]c(=O)c(CO)c2)C1 [WO2025064535, Compound 88]	5.71	–	< 5.52
C[C@@H](C(=O)Nc1nc2cc3c(cc2s1)OC(F)(F)O3)N1CCC(F)(F)[C@H](c2c[nH]c(=O)c(CO)c2)C1 [WO2025064535, Compound 89]	7.52	7.18	6.67
C[C@@H](C(=O)Nc1nc2cc3c(cc2s1)OC(F)(F)O3)N1CCC(F)(F)[C@@H](c2c[nH]c(=O)c(CO)n2)C1 [WO2025064535, Compound 90]	< 4.76	–	< 5.52
C[C@@H](C(=O)Nc1nc2cc3c(cc2s1)OC(F)(F)O3)N1CCC(F)(F)[C@H](c2c[nH]c(=O)c(CO)n2)C1 [WO2025064535, Compound 91]	7.44	7.17	6.63
CNCc1cc([C@@H]2CN([C@@H](C)C(=O)Nc3nc4cc5c(cc4s3)OC(F)(F)O5)CCC2(F)F)cc[n+]1[O-] [WO2025064535, Compound 102]	7.06	–	6.46
C[C@@H](C(=O)Nc1nc2cc3c(cc2s1)CCC3)N1CCC(F)(F)[C@H](c2c[nH]c(=O)c(CO)c2)C1 [WO2025064535, Compound 107]	7.31	7.00	6.23

Compounds with a higher pIC50 [1], results first:

pIC50 [1]	pIC50 [2]	pIC50 [3]	SMILES
7.82	7.57	–	C[C@@H](C(=O)Nc1nc2cc3c(cc2s1)OC(F)(F)O3)N1CCC(F)(F)[C@H](c2ccc(=O)[nH]c2)C1 [WO2025064535, Compound 32]
7.85	7.28	–	C[C@@H](C(=O)Nc1nc2cc3c(cc2s1)OC(F)(F)O3)N1CCC(F)(F)[C@@H](c2c[nH]c(=O)cn2)C1 [WO2025064535, Compound 34]
7.96	8.13	–	C[C@@H](C(=O)Nc1nc2cc3c(cc2s1)OC(F)(F)O3)N1CCC(F)(F)[C@H](c2c[nH]c(=O)c([C@@H](O)CO)c2)C1 [WO2025064535, Compound 43]
8.07	7.70	–	C[C@@H](C(=O)Nc1nc2cc3c(cc2s1)OCCO3)N1CCC(F)(F)[C@@H](c2ccc(=O)[nH]c2)C1 [WO2025064535, Compound 29]
8.11	8.18	–	C[C@@H](C(=O)Nc1nc2cc3c(cc2s1)OC(F)(F)O3)N1CCC(F)(F)[C@H](c2cc[n+]([O-])c([C@H](O)CO)c2)C1 [WO2025064535, Compound 54]
8.23	7.64	–	C[C@@H](C(=O)Nc1nc2cc3c(cc2s1)OCCO3)N1CCC(F)(F)[C@H](c2c[nH]c(=O)cn2)C1 [WO2025064535, Compound 41]
8.43	–	7.92	C[C@H](C(=O)Nc1nc2cc3c(cc2s1)OCO3)N1CCC(F)(F)[C@@H](c2cc[n+]([O-])cc2)C1 [WO2025064535, Compound 81]
